# Experimental data published in US8242058B2, “Reagents and methods for appending functional groups to proteins” (Wisconsin Alumni Research Foundation, priority 2006, dated 2012).
# T1: Met(−1)RNase A-Gly-mxe intein thioester (UniProt P20533+P61823)
# T1 construct: made in house; host or cells: E. coli BL21 (DE3), plasmid pJK01
# T1 sequence (P61823+P20533 with tags, fused parts or gaps): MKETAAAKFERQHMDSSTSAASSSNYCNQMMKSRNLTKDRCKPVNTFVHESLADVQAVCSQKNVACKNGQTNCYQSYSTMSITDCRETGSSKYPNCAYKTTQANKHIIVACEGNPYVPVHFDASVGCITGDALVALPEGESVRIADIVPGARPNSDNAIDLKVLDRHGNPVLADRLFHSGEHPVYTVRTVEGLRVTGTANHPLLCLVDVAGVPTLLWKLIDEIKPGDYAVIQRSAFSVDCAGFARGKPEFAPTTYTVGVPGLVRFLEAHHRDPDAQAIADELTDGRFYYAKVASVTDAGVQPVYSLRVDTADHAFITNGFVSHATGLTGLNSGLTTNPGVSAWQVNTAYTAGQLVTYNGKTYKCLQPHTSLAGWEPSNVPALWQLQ
# T2: ribonuclease inhibitor protein (RI) (Homo sapiens, UniProt P13489)
# T2 sequence (P13489 2-461 limits assumed): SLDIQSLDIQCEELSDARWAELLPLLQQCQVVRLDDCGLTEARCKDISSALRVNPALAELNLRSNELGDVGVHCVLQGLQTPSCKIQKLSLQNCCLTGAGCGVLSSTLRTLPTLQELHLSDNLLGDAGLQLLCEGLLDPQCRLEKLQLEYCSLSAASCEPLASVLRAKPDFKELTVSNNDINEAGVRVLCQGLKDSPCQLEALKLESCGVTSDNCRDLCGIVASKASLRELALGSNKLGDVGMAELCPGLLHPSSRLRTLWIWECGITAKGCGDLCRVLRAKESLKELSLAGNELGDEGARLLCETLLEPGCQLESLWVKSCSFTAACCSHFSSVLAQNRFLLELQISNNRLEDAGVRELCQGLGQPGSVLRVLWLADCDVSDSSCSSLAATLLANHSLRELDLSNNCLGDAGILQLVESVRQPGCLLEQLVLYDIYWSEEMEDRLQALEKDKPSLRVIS
# Legend:
# [1] = Kinetics of thioester cleavage (release of thiophenolate, absorbance at 410 nm); conditions: for fold greater k1 value than ethyl amine / rate constants (k2 and k1) for thioester cleavage: pH 7.0, 25° C.; for fold greater k1 value than ethyl amine: pseudo-unimolecular conditions
# Procedure: To identify the optimal nitrogen nucleophile for a thioester, kinetic studies were performed on a model chromogenic thioester: AcGlySC6H4-p-NO2. The rate of release of the thiophenolate anion was monitored by measuring the change in absorbance at 410 nm (Scheme 1). Nitrogen nucleophiles with conjugate-acid pKa values ranging from 4.6 to 10.6 (Table 1) were used in the experiments. The logarithmic values of the second-order rate constants (k2) of the unprotonated primary amines were plotted against the pKa values of their conjugate acids to yield the Brønsted plot shown in FIG. 2A. The data were fitted to the equation^[26]: log k2=log(AB)+(β+β′)pKa−log(A10^βpK^a+B10^β′pK^a) (1) In eq 1, A and B are constants, β′ is the slope of the former part of the Brønsted plot, and β is the slope of the latter part.
# Kinetics of thioester cleavage: AcGlySC6H4-p-NO2 was dissolved in anhydrous acetonitrile to a concentration of 0.45 mM and used immediately. Amine solutions (except CF3CH2NH2.HCl) were prepared by dissolving the amine hydrochloride salts in 0.10 M sodium phosphate buffer at pH 7.0 to a concentration of 0.15 M. Reaction mixtures were prepared in a 1,1-mL volume and equilibrated at 25° C. All reactions contained […] acetonitrile. The ionic strength of each reaction mixture was I=0.22-0.25. All reactions were carried out with a large excess of amine and followed pseudo-first-order kinetics. In a cuvette containing 0.10 M sodium phosphate buffer at pH 7.0 (967 μL), amine solution (0.15 M, 100 μL) was added and the absorbance at 410 nm was adjusted to zero. The thioester (33 μL of a 0.45 mM solution in acetonitrile) was then added to the cuvette, and the absorbance at 410 nm was monitored with time (ε=11,230 M^−1cm^−1 for p-nitrothiophenolate anion). […] This value is likely to be lower in an aqueous buffer, such that the ionization of the p-nitrothiophenol product is virtually complete in all our assays. The final concentration of the thioester in the reaction was 13.64 μM and the final concentration of the amines (except CF3CH2NH2.HCl) was 13.64 mM. Each reaction was performed in triplicate. The reactions were allowed to go to completion, and the t1/2 was determined from the kinetic trace. The t1/2 was corrected by subtracting the t1/2 for hydrolysis from the observed value. Pseudo-first-order rate constants were calculated by using the equation k1=0.693/t1/2. Second-order rate constants were obtained by dividing each observed first-order rate constant by the concentration of free amine. Logarithmic values of second-order rate constants were plotted against the pKa values of the conjugate acids of the respective amines to yield a Brønsted plot.
# Using a higher buffer concentration was not ideal, as that would increase the ionic strength to a much value much larger than that in other reaction mixtures. To overcome these problems, the reaction with CF3CH2NH2 was carried out using 40.92 mM CF3CH2NH2.HCl and allowing the pH of the reaction mixture to decrease to 5.8. The observed t12 was corrected by subtracting the t12 for hydrolysis at pH 5.8. The second-order rate constant was calculated by accounting for the concentration of free amine at pH 5.8, and the resulting value was used in the Brønsted plot. The first-order rate constant thus obtained was not compared to those for the other nucleophiles.
# [2] = cited from earlier work
# [3] = target: T1, Met(−1)RNase A-Gly-mxe intein thioester; test: On-resin cleavage of the intein fusion protein thioester; conditions: on chitin resin
# Description: Next, we sought to use our bifunctional reagents to install an azido group at the C terminus of a model protein. As our protein, we chose bovine pancreatic ribonuclease (RNase A), which has been the object of much seminal work in protein chemistry and has been manipulated previously with expressed protein ligation. RNase A has valine as its C-terminal residue. A valine residue at the C terminus of a target protein is known to have a debilitating effect on the cleavage efficiency of protein-intein thioesters. To avert this problem, we inserted a glycine residue between the C terminus of RNase A and the intein. The resulting Met(−1)RNase A-Gly-mxe intein-chitin-binding domain fusion protein (MW ˜36 kDa) was produced in E. coli, and the cell lysate was loaded onto chitin resin. Azides 1 and 2 were used to induce the on-resin cleavage of the fusion protein. […] The purity of the azido-RNase A (even upon elution from the chitin column) was apparent from SDS-PAGE analysis (FIG. 3A); the integrity of the azido-RNase A was verified by using MALDI-TOF mass spectrometry (FIG. 3B). This procedure produced an overall yield of ˜1 mg of purified azido-RNase A per liter of E. coli culture. […]
# [4] = Storage stability of the reagent; assay type: physicochemical; conditions: TFA salt, storage under vacuum
# Description: Azide 2 was synthesized by the route in Scheme 3. Briefly, 4-pentenoic acid was subjected to ozonolysis, and the resulting aldehyde was reacted in-situ with Boc-protected hydrazine. The azido group was installed by coupling 1-azido-2-aminoethane (4) to the carboxylic acid. The hydrazone was then reduced selectively with NaCNBH3. The Boc group was removed to produce azide 2 as its trifluoroacetic acid (TFA) salt with an overall yield of 26% (which includes the 80% yield for the synthesis of azide 3).
# [5] = target: T2, ribonuclease inhibitor protein (RI); test: RI binding to immobilized RNase A (immunoassay, ellipsometry); conditions: RI 10 μM, 10 min at 4° C.
# Procedure: RI binding to immobilized RNase A. Azido-RNase A (1 μL, 10 μM in 5% DMF/water) was spotted on phosphinothioester-displaying SAMs on a gold chip for 15 minutes at r.t. in an AtmosBag™ filled with Ar(g). The chip was taken out of the bag and rinsed with sodium phosphate buffer (25 mM) at pH 7.5 (2×20 mL) and incubated in the same buffer for 30 min to remove non-specifically bound RNase A. RI (10 μM in sodium phosphate buffer (25 mM) at pH 7.5 containing 10 mM DTT) was overlaid on the chip for 10 min at 4° C. The chip was then rinsed with sodium phosphate buffer (25 mM) at pH 7.5 containing 10 mM DTT (2×20 mL) and incubated in the same buffer for 15 min.
# Detection of RI bound to immobilized RNase A. (i) Immunoassay: After RI binding, the chip was overlaid with bovine serum albumin (2.0 mg/mL in sodium phosphate buffer (25 mM) at pH 7.5) for 15 min. The chip was rinsed with sodium phosphate buffer (25 mM) at pH 7.5 (2×20 mL) and subsequently incubated with chicken primary antibody to RI (12.5 μg/mL in sodium phosphate buffer (25 mM) at pH 7.5) for 15 min. […] The chip was scanned with a Genomic Solutions® GeneTac UC4×4 Fluorescence Scanner using a gain of 50. […]
# [6] = test system: 6-carboxyfluorescein-dArU(dA)2-6-carboxytetramethylrhodamine; test: RNase A activity assay on immobilized RNase A; assay type: biochemical; conditions: chip overlaid with 10 μM protein, pH 6.0
# Procedure: RNase A activity assay on immobilized RNase A. A phosphinothioester chip was overlaid with azido-RNase A (10 μM in 5% DMF/H2O) for 15 min in Ar(g) atmosphere in an AtmosBag™ to immobilize RNase A via Staudinger ligation. The chip was rinsed with sodium phosphate buffer (25 mM) at pH 7.5 (2×20 mL) and then introduced into a vial containing 2-(N-Morpholino)ethanesulfonic acid buffer (0.1 M) at pH 6.0 (22 mL, containing 0.1 M NaCl). A fluorogenic substrate of RNase A, 6-carboxyfluorescein-dArU(dA)2-6-carboxytetramethylrhodamine (10 μl of a 40 μM solution), was introduced into the vial. The vial was placed on a shaker and 2 mL aliquots were withdrawn at various time intervals and the fluorescence measured (λex=493 nm, λem=515 nm). The fluorescence intensity was plotted against time. A phosphinothioester chip was overlaid with wt-RNase A (10 μM in 5% DMF/H2O) and rinsed with sodium phosphate buffer (25 mM) at pH 7.5 (2×20 mL) and a similar assay was performed. As a negative control, a similar assay was performed on a phosphinothioester chip which was not overlaid with RNase A. The percentage of the fluorescent substrate cleaved at various time intervals were subtracted from the corresponding values for the negative control to generate the graph in FIG. 8.
molecule,measurement,setting,value
CCOC(=O)CNN [C2H5O(O)CCH2NHNH2],fold greater k1 value than ethyl amine,[1],30 fold
same,pKa of conjugate acid,[2],6.45^[24]
CCN [CH3CH2NH2],"nucleophilicity of unprotonated amines (k2, Brønsted plot)","[1]; all amines deprotonated, 25° C.",best nucleophile
same,pKa of conjugate acid,[2],10.63^[22]
CNN [CH3NHNH2],fold greater k1 value than ethyl amine,[1],100 fold
same,pKa of conjugate acid,[2],7.87^[25]
COC(=O)CN [CH3O(O)CCH2NH2],pKa of conjugate acid,[2],7.75^[22]
CON [CH3ONH2],pKa of conjugate acid,[2],4.60^[22]
NCC(F)(F)F [F3CCH2NH2],nucleophilicity at pH 7.0 (aminolysis versus hydrolysis),"[1]; pH 7.0, standard reaction conditions",poor nucleophile
same,pKa of conjugate acid,[2],5.40^[23]
NCCO [HOCH2CH2NH2],pKa of conjugate acid,[2],9.50^[22]
"[N-]=[N+]=NCCNC(=O)CNN [azide 1, H2NNHCH2CONHCH2CH2N3]",rate constants (k2 and k1) for thioester cleavage,[1],indistinguishable from those of the α-hydrazino acetyl group
same,efficiency of cleaving the protein-intein thioester,[3],much more effective than azide 2
CF3CO2H.H2NNHCH2CH2CH2CONHCH2CH2N3 [azide 2],rate constants (k2 and k1) for thioester cleavage,[1],much lower than those of methylhydrazine
same,stability on storage,[4],unstable
"wild-type RNase A: bovine pancreatic ribonuclease (RNase A), unmodified wild-type, Sigma Chemical (protein, UniProt P61823 27-150, looked up) Ribonuclease pancreatic: KETAAAKFERQHMDSSTSAASSSNYCNQMMKSRNLTKDRCKPVNTFVHESLADVQAVCSQKNVACKNGQTNCYQSYSTMSITDCRETGSSKYPNCAYKTTQANKHIIVACEGNPYVPVHFDASV",RI binding to chip incubated with the protein,[5],No RI binding was observed
same,enzymatic activity of chip incubated with the protein (increase of fluorescence intensity),[6],small enzymatic activity
